System: NCI-H295R
Assay: IC50 (antiproliferative, ATP content)
Conditions: 48 h
Method in brief: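 In 1536-well plates, 1500 adrenocortical carcinoma cells per well were grown overnight in serum-free, ITS-supplemented DMEM before compounds were pin-transferred at 8 final concentrations (0.6 nM to 46 µM). After 48 h at 37 °C and 5% CO2, CellTiter-Glo luminescence was read following 20 min at room temperature and normalised to vehicle and positive-control wells. IC50 values came from logistic curve fits, with compounds lacking any concentration response listed as above the top dose.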

SMILES	IC50 [µM]
O=C(N/N=C/c1ccc([N+](=O)[O-])o1)c1cc([N+](=O)[O-])cc([N+](=O)[O-])c1O	> 46
CCCCCCCCCCCC(=O)[O][Sn]([CH2]CCC)([CH2]CCC)[O]C(=O)CCCCCCCCCCC	> 46
Cc1ccccc1-n1c(CF)nc2ccc(N)cc2c1=O	> 46
NP(N)(=O)NC(=O)c1ccc(F)cc1	> 46
CCCc1nn(C)c2c(=O)[nH]c(-c3cc(S(=O)(=O)N4CCN(C)CC4)ccc3OCC)nc12.O=C(O)CC(O)(CC(=O)O)C(=O)O	> 46
COc1ccc2c(c1)N(C[C@H](C)CN(C)C)c1ccccc1S2.O=C(O)/C=C\C(=O)O	> 46
OC(c1ccccc1)(c1ccccc1)C1CN2CCC1CC2 (stereo unspecified)	> 46
O.O.Oc1cc(O)cc(O)c1	> 46
CC(O)[C@H]1CC[C@H]2[C@@H]3CC[C@@H]4C[C@@H](O)CC[C@]4(C)[C@H]3CC[C@]12C (stereo partly specified)	> 46
CC(=O)Nc1ccc(OCCOCCOc2ccc(NC(C)=O)cc2)cc1	> 46
FC(F)OC(F)(F)C(F)Cl (stereo unspecified)	> 46
CNC[C@H](O)c1ccc(O)c(O)c1	> 46
CC(C)[N+](C)(CCOC(=O)C1c2ccccc2Oc2ccccc21)C(C)C.[Br-]	> 46
C[C@]12C=CC(=O)C=C1[C@@H](F)C[C@@H]1[C@@H]2[C@@H](O)C[C@@]2(C)[C@H]1CC[C@]2(O)C(=O)CO	> 46
CCN(CC)CCOc1ccc2nc(N(C)C)sc2c1	> 46
Cc1c(N(C)C)c(=O)n(-c2ccccc2)n1C	> 46
CNC(C)C(O)c1ccc(O)cc1.Cl (stereo unspecified)	> 46
CCOc1ccc2nc(S(N)(=O)=O)sc2c1	> 46
CCC1(c2ccccc2)C(=O)NCNC1=O	> 46

SMILES	IC50 [µM]
Cc1c(C)n(CCN(C)C)c2ccc(C(=O)OCCN(C)C)cc12	> 46
Cn1cnc2c1c(=O)[nH]c(=O)n2C	> 46
OC[C@H]1O[C@@](CO)(O[C@H]2O[C@H](CO)[C@@H](O)[C@H](O)[C@H]2O)[C@@H](O)[C@@H]1O	> 46
OC1=C(C=C(/C=C(C#N)/C#N)C=C1)O	> 46
CC[N+](C)(CC)CCOC(=O)C1c2ccccc2Oc2ccccc21.[Br-]	> 46
C[C@@H](Cc1ccccc1)N(C)C	> 46
Cn1c(=O)c2c(ncn2CCO)n(C)c1=O	> 46
c1ccc2sc(SSc3nc4ccccc4s3)nc2c1	> 46
CN[C@H](CC(C)C)C(=O)N[C@H]1C(=O)N[C@@H](CC(N)=O)C(=O)N[C@H]2C(=O)N[C@H]3C(=O)N[C@H](C(=O)N[C@@H](C(=O)O)c4cc(O)cc(O)c4-c4cc3ccc4O)[C@H](O)c3ccc(c(Cl)c3)Oc3cc2cc(c3O[C@@H]2O[C@H](CO)[C@@H](O)[C@H](O)[C@H]2O[C@H]2C[C@](C)(N)C(O)[C@H](C)O2)Oc2ccc(cc2Cl)[C@H]1O.Cl (stereo partly specified)	> 46
O=C(Nc1ccc(Cl)c(Cl)c1)C1CC1	> 46
CCCCCOC(=O)Nc1nc(=O)n([C@@H]2O[C@H](C)[C@@H](O)[C@H]2O)cc1F	> 46
CC(C)[N+](C)(C)CC(O)COc1cccc2ccccc12.[Cl-] (stereo unspecified)	> 46
O=C(O)c1ccccn1	> 46
N[C@H](C(=O)O)[C@@H](O)c1ccc(O)c(O)c1	> 46
Cc1ccc(S(=O)(=O)NC(=O)NC2CCCC2)cc1	> 46
CC[C@H]1OC(=O)[C@H](C)[C@@H](O[C@H]2C[C@@](C)(OC)[C@@H](O)[C@H](C)O2)C(C)[C@@H](O[C@@H]2O[C@H](C)C[C@H](N(C)C)[C@H]2O)[C@](C)(OC)C[C@@H](C)C(=O)[C@H](C)[C@@H](O)[C@]1(C)O (stereo partly specified)	> 46
C=O	> 46
CCC(=O)O[C@]1(C(=O)CCl)[C@@H](C)C[C@H]2[C@@H]3CCC4=CC(=O)C=C[C@]4(C)[C@@]3(F)[C@@H](O)C[C@@]21C	> 46

Next, values leading:

IC50 [µM]	SMILES
> 46	O=C([O-])c1cc(=O)c2c(OCC(O)COc3cccc4oc(C(=O)[O-])cc(=O)c34)cccc2o1.[Na+].[Na+]
> 46	CCCCCCCCCCCCSCCOCCO
> 46	CC(=C\c1ccccc1)/C=C1/SC(=S)N(CC(=O)O)C1=O
> 46	CN(C)CCc1c[nH]c2ccc(CS(=O)(=O)N3CCCC3)cc12
> 46	O=C(OC[C@H]1O[C@](O)(COC(=O)c2cccnc2)[C@@H](OC(=O)c2cccnc2)[C@@H]1OC(=O)c1cccnc1)c1cccnc1
> 46	O=C1[C@](NC(C3S\C(S3)=C(C(O)=O)/C(N)=O)=O)(OC)[C@]2([H])N1C(C(O)=O)=C(CSC4=NN=NN4C)CS2 (stereo partly specified)
> 46	NC(Cc1ccc(Cl)cc1)C(=O)O (stereo unspecified)
> 46	COc1cc(O)cc(O)c1
> 46	Cc1c(NC(=O)c2cccnc2)c(=O)n(-c2ccccc2)n1C
> 46	CCCCC(CC)COC(=O)c1ccccc1O (stereo unspecified)
> 46	Cc1cnc(C(=O)NCCc2ccc(S(=O)(=O)NC(=O)NC3CCCCC3)cc2)cn1
> 46	NC(=O)NC(=O)Cc1ccccc1
> 46	NCCN
> 46	CNNCc1ccc(C(=O)NC(C)C)cc1.Cl
> 46	C[C@@H](O)[C@H]1C(=O)N2C(C(=O)[O-])=C(SC3Cn4cnc[n+]4C3)[C@H](C)[C@H]12 (stereo partly specified)
> 46	OC[C@@H](O)[C@H](O)[C@H](O)[C@@H](O)CO
> 46	CN(C)CCC(O)(c1ccccc1)c1ccccc1Cl (stereo unspecified)

IC50 [µM]	SMILES
> 46	COc1ccc(CCN(C)CCCN2CCc3cc(OC)c(OC)cc3CC2=O)cc1OC.Cl
> 46	CCCC1C(=O)N2C(N(C)C)=Nc3ccc(C)cc3N2C1=O (stereo unspecified)
> 46	O[C@@H]([C@H](O)[C@H](O)CBr)[C@H](O)CBr
> 46	CC(CN(C)C)C(C)(O)Cc1ccc(Cl)cc1.Cl (stereo unspecified)
> 46	C[C@@H](CC)C(=O)O[C@H]2C[C@@H](C)\C=C3\C=C/[C@H](C)[C@H](CC[C@@H]1C[C@@H](O)CC(=O)O1)[C@@H]23
> 46	NC12CC3CC(CC(C3)C1)C2
> 46	[H][C@]13[C@](O3)([H])[C@@H]2CC(OC(C(C4=CC=CS4)(C5=CC=CS5)O)=O)C[C@H]1[N@@+](C)2C.[Br-] (stereo partly specified)
> 46	CCCc1nc(C(C)(C)O)c(C(=O)OCc2oc(=O)oc2C)n1Cc1ccc(-c2ccccc2-c2nnn[nH]2)cc1
> 46	COc1c(O)cc2c(c1O)[C@@H]1O[C@H](CO)[C@@H](O)[C@H](O)[C@H]1OC2=O.O
> 46	COC(=O)c1ccc(O)cc1
> 46	Cc1ccccc1/N=N/c1ccc(/N=N/c2c(O)ccc3ccccc23)c(C)c1
> 46	CC(C)Cn1cnc2c(N)nc3ccccc3c21
> 46	[C@@]2\1(\C(=C/C(/C=C/1)=O)[C@H](C[C@@H]4[C@@H]2[C@H](C[C@@]3([C@](C(COC(=O)C)=O)(O)CC[C@H]34)C)O)C)C
> 46	Cc1cc(O)cc2c1O[C@](C)(CCC[C@H](C)CCC[C@H](C)CCCC(C)C)CC2
> 46	COc1ccc(C(=O)c2ccccc2)c(O)c1
> 46	CCCCCCCCCCCCCCCC(=O)O
> 46	C[C@H](Cc1ccc(O)c(O)c1)[C@@H](C)Cc1ccc(O)c(O)c1
